± gives the expanded uncertainty stated by the source.

We go through 6 molecules from the NIST ThermoML archive (doi:10.1016/j.fluid.2013.06.006).

The conditions of series [1]: 293.2 K; 101.33 kPa; Liquid; Vibrating tube method.
Series [2] in a line: refractive index (Na D-line) (dimensionless). To be noted: 293.2 K; 101.33 kPa; Liquid; Standard Abbe refractometry.

As usually defined, the mass density is mass per unit of volume. For orientation: refractive index means a measure of how strongly the sample bends light. In the case of `CCCCCCCO` [heptan-1-ol], the mass density in series [1] turned out to be 821.63 ± 0.26 kg/m3. Moreover, the refractive index in series [2] was 1.4244 ± 0.0005. As for `O=CO` [formic acid], in series [1], the mass density turned out to be 1219.5 ± 0.4 kg/m3. In series [2], the refractive index was determined as 1.3711 ± 0.0005. As for `O` [water], in series [2], the refractive index was 1.3328 ± 0.0005. In the case of `CCCCO` [butan-1-ol], in series [1], the mass density is recorded as 809.33 ± 0.26 kg/m3. Besides, in series [2], the refractive index is given as 1.3983 ± 0.0005. Taken in the same sequence, the figures for `CCCCCCO` [hexan-1-ol] were 818.21 ± 0.26 kg/m3 and 1.4181 ± 0.0005. For the molecule `CCCCCO` [pentan-1-ol], in series [1], the mass density came out at 813.98 ± 0.26 kg/m3. In series [2], the refractive index is 1.41 ± 0.0005.
